Data set [1] deals with Acinetobacter baumannii. The experiment in a line: Antibacterial activity against wild type Acinetobacter baumannii ATCC 17978 assessed as resistant development at sub-MIC measured after 7 days of passaging by microbroth dilution method relative to control. It is filed as functional. For orientation: In broth dilution the organism is exposed to a series of concentrations in liquid medium.

In data set [2] the test system is Acinetobacter baumannii. The experiment in a line: Antibacterial activity against novobiocin-resistant Acinetobacter baumannii ATCC 17978 mutant generated from seven serial passages by checkerboard assay. Type of data set: functional.
Data set [3] deals with Acinetobacter baumannii. The experiment in a line: Antibacterial activity against colistin-resistant Acinetobacter baumannii ATCC 17978 mutant generated from seven serial passages by checkerboard assay. Type of data set: functional.
Data set [4] relates to Acinetobacter baumannii. Nature of the data set: Antibacterial activity against novobiocin and test compound-resistant Acinetobacter baumannii ATCC 17978 mutant generated from seven serial passages in presence of novobiocin by checkerboard assay. It is filed as functional.
For data set [5], the system named is Acinetobacter baumannii. Nature of the data set: Antibacterial activity against wild type Acinetobacter baumannii ATCC 17978 by checkerboard assay. Type of data set: functional.
Data set [6] deals with Pseudomonas aeruginosa. Nature of the data set: Synergistic antibacterial activity against wild type Pseudomonas aeruginosa PAO1 assessed as potentiation of cefotaxime-induced antibacterial effect incubated for 18 hrs by checkerboard assay. It is filed as functional, organism-based.
Data set [7] relates to Pseudomonas aeruginosa. Nature of the data set: Synergistic antibacterial activity against wild type Pseudomonas aeruginosa PAO1 assessed as potentiation of minocycline-induced antibacterial effect incubated for 18 hrs by checkerboard assay. It is filed as functional, organism-based.
In data set [8] the test system is Pseudomonas aeruginosa. Nature of the data set: Synergistic antibacterial activity against wild type Pseudomonas aeruginosa PAO1 assessed as potentiation of meropenem-induced antibacterial effect incubated for 18 hrs by checkerboard assay. Type of data set: functional, organism-based.
The test system of a further data set is HEK293. Nature of the data set: Cytotoxicity against human HEK293 cells at 50 uM incubated for 48 hrs by PrestoBlue dye based fluorescence assay. Type of data set: cell-based. The conditions noted are these: hek293, 48 h.
The subject of the next data set is HepG2. The experiment in a line: Cytotoxicity against human HepG2 cells at 50 uM incubated for 48 hrs by PrestoBlue dye based fluorescence assay. Type of data set: cell-based. Particulars: hepg2, 48 h.
Another data set relates to Erythrocyte. The experiment in a line: Hemolytic activity against porcine erythrocytes assessed as hemoglobin release at 1024 ug/ml incubated for 1 hr by microplate reader analysis. Type of data set: ADME, cell-based, Sus scrofa. Particulars: pig.
A short description of data set [9]: Toxicity in Galleria mellonella larvae assessed as survivability at 200 mg/kg measured every 6 hrs for 72 hrs. It is filed as organism-based. The conditions noted are these: in vivo.
Data set [10] concerns Pseudomonas aeruginosa. The experiment in a line: Synergistic antibacterial activity against wild type Pseudomonas aeruginosa PAO1 assessed as potentiation of rifampicin-induced antibacterial effect incubated for 18 hrs by checkerboard assay. It is filed as functional, organism-based.
Data set [11] concerns Pseudomonas aeruginosa. The experiment in a line: Synergistic antibacterial activity against wild type Pseudomonas aeruginosa PAO1 assessed as potentiation of doxycycline-induced antibacterial effect incubated for 18 hrs by checkerboard assay. It is filed as functional, organism-based.
The test system of data set [12] is Pseudomonas aeruginosa. Nature of the data set: Synergistic antibacterial activity against wild type Pseudomonas aeruginosa PAO1 assessed as potentiation of linezolid-induced antibacterial effect incubated for 18 hrs by checkerboard assay. It is filed as functional, organism-based.
Data set [13] deals with Pseudomonas aeruginosa. Nature of the data set: Synergistic antibacterial activity against wild type Pseudomonas aeruginosa PAO1 assessed as potentiation of moxifloxacin-induced antibacterial effect incubated for 18 hrs by checkerboard assay. It is filed as functional, organism-based.
Data set [14] concerns Pseudomonas aeruginosa. The experiment in a line: Synergistic antibacterial activity against wild type Pseudomonas aeruginosa PAO1 assessed as potentiation of ciprofloxacin-induced antibacterial effect incubated for 18 hrs by checkerboard assay. Type of data set: functional, organism-based.
For data set [15], the system named is Pseudomonas aeruginosa. The experiment in a line: Synergistic antibacterial activity against wild type Pseudomonas aeruginosa PAO1 assessed as potentiation of levofloxacin-induced antibacterial effect incubated for 18 hrs by checkerboard assay. It is filed as functional, organism-based.
In data set [16] the test system is Pseudomonas aeruginosa. Nature of the data set: Synergistic antibacterial activity against wild type Pseudomonas aeruginosa PAO1 assessed as potentiation of aztreonam-induced antibacterial effect incubated for 18 hrs by checkerboard assay. Type of data set: functional, organism-based.
In data set [17] the test system is Pseudomonas aeruginosa. The experiment in a line: Synergistic antibacterial activity against wild type Pseudomonas aeruginosa PAO1 assessed as potentiation of ceftazidime-induced antibacterial effect incubated for 18 hrs by checkerboard assay. Type of data set: functional, organism-based.
In data set [18] the test system is Pseudomonas aeruginosa. The experiment in a line: Synergistic antibacterial activity against wild type Pseudomonas aeruginosa PAO1 assessed as potentiation of fosfomycin-induced antibacterial effect incubated for 18 hrs by checkerboard assay. It is filed as functional, organism-based.
The test system of data set [19] is Pseudomonas aeruginosa. The experiment in a line: Synergistic antibacterial activity against wild type Pseudomonas aeruginosa PAO1 assessed as potentiation of chloramphenicol-induced antibacterial effect incubated for 18 hrs by checkerboard assay. It is filed as functional, organism-based.
Data set [20] relates to Pseudomonas aeruginosa. The experiment in a line: Synergistic antibacterial activity against wild type Pseudomonas aeruginosa PAO1 assessed as potentiation of clindamycin-induced antibacterial effect incubated for 18 hrs by checkerboard assay. Type of data set: functional, organism-based.
Data set [21] has as its system Pseudomonas aeruginosa. Nature of the data set: Synergistic antibacterial activity against wild type Pseudomonas aeruginosa PAO1 assessed as potentiation of piperacillin-induced antibacterial effect incubated for 18 hrs by checkerboard assay. Type of data set: functional, organism-based.
Data set [22] concerns Pseudomonas aeruginosa. Nature of the data set: Synergistic antibacterial activity against wild type Pseudomonas aeruginosa PAO1 assessed as potentiation of novobiocin-induced antibacterial effect incubated for 18 hrs by checkerboard assay. It is filed as functional, organism-based.
For data set [23], the system named is Pseudomonas aeruginosa. The experiment in a line: Synergistic antibacterial activity against wild type Pseudomonas aeruginosa PAO1 assessed as potentiation of tobramycin-induced antibacterial effect at <= 7.1 uM incubated for 18 hrs by checkerboard assay. Type of data set: functional, organism-based.
In data set [24] the test system is Pseudomonas aeruginosa. The experiment in a line: Synergistic antibacterial activity against wild type Pseudomonas aeruginosa PAO1 assessed as potentiation of vancomycin-induced antibacterial effect at <=7.1 uM incubated for 18 hrs by checkerboard assay. Type of data set: functional, organism-based.
The subject of data set [25] is Pseudomonas aeruginosa. Nature of the data set: Synergistic antibacterial activity against wild type Pseudomonas aeruginosa PAO1 assessed as potentiation of colistin-induced antibacterial effect at <=7.1 uM incubated for 18 hrs by checkerboard assay. It is filed as functional, organism-based.
Data set [26] deals with Pseudomonas aeruginosa. The experiment in a line: Antibacterial activity against wild type Pseudomonas aeruginosa PAO1 assessed as fractional inhibitory concentration index incubated for 18 hrs in presence of tobramycin by checkerboard assay. It is filed as functional.
Data set [27] relates to Pseudomonas aeruginosa. The experiment in a line: Antibacterial activity against wild type Pseudomonas aeruginosa PAO1 assessed as fractional inhibitory concentration index incubated for 18 hrs in presence of colistin by checkerboard assay. Type of data set: functional.
The subject of data set [28] is Pseudomonas aeruginosa. The experiment in a line: Synergistic antibacterial activity against wild type Pseudomonas aeruginosa PAO1 assessed as potentiation of rifampicin-induced antibacterial effect incubated for 18 hrs by checkerboard assay relative to rifampicin alone. Type of data set: functional.
In data set [29] the test system is Pseudomonas aeruginosa. Nature of the data set: Synergistic antibacterial activity against wild type Pseudomonas aeruginosa PAO1 assessed as potentiation of minocycline-induced antibacterial effect incubated for 18 hrs by checkerboard assay relative to minocycline alone. It is filed as functional.
The subject of data set [30] is Pseudomonas aeruginosa. Nature of the data set: Synergistic antibacterial activity against wild type Pseudomonas aeruginosa PAO1 assessed as potentiation of cefotaxime-induced antibacterial effect incubated for 18 hrs by checkerboard assay relative to cefotaxime alone. Type of data set: functional.
Data set [31] concerns Pseudomonas aeruginosa. Nature of the data set: Synergistic antibacterial activity against wild type Pseudomonas aeruginosa PAO1 assessed as potentiation of doxycycline-induced antibacterial effect incubated for 18 hrs by checkerboard assay relative to doxycycline alone. It is filed as functional.
Data set [32] concerns Pseudomonas aeruginosa. The experiment in a line: Synergistic antibacterial activity against wild type Pseudomonas aeruginosa PAO1 assessed as potentiation of linezolid-induced antibacterial effect incubated for 18 hrs by checkerboard assay relative to linezolid alone. It is filed as functional.
In data set [33] the test system is Pseudomonas aeruginosa. Nature of the data set: Synergistic antibacterial activity against wild type Pseudomonas aeruginosa PAO1 assessed as potentiation of meropenem-induced antibacterial effect incubated for 18 hrs by checkerboard assay relative to meropenem alone. Type of data set: functional.
Data set [34] concerns Pseudomonas aeruginosa. The experiment in a line: Synergistic antibacterial activity against wild type Pseudomonas aeruginosa PAO1 assessed as potentiation of moxifloxacin-induced antibacterial effect incubated for 18 hrs by checkerboard assay relative to moxifloxacin alone. It is filed as functional.
The subject of data set [35] is Pseudomonas aeruginosa. The experiment in a line: Synergistic antibacterial activity against wild type Pseudomonas aeruginosa PAO1 assessed as potentiation of ciprofloxacin-induced antibacterial effect incubated for 18 hrs by checkerboard assay relative to ciprofloxacin alone. Type of data set: functional.
Data set [36] has as its system Pseudomonas aeruginosa. Nature of the data set: Synergistic antibacterial activity against wild type Pseudomonas aeruginosa PAO1 assessed as potentiation of levofloxacin-induced antibacterial effect incubated for 18 hrs by checkerboard assay relative to levofloxacin alone. Type of data set: functional.
Data set [37] has as its system Pseudomonas aeruginosa. The experiment in a line: Synergistic antibacterial activity against wild type Pseudomonas aeruginosa PAO1 assessed as potentiation of aztreonam-induced antibacterial effect incubated for 18 hrs by checkerboard assay relative to aztreonam alone. It is filed as functional.
Data set [38] relates to Pseudomonas aeruginosa. The experiment in a line: Synergistic antibacterial activity against wild type Pseudomonas aeruginosa PAO1 assessed as potentiation of ceftazidime-induced antibacterial effect incubated for 18 hrs by checkerboard assay relative to ceftazidime alone. Type of data set: functional.
The subject of data set [39] is Pseudomonas aeruginosa. Nature of the data set: Synergistic antibacterial activity against wild type Pseudomonas aeruginosa PAO1 assessed as potentiation of fosfomycin-induced antibacterial effect incubated for 18 hrs by checkerboard assay relative to fosfomycin alone. It is filed as functional.
The test system of data set [40] is Pseudomonas aeruginosa. Nature of the data set: Synergistic antibacterial activity against wild type Pseudomonas aeruginosa PAO1 assessed as potentiation of chloramphenicol-induced antibacterial effect incubated for 18 hrs by checkerboard assay relative to chloramphenicol alone. Type of data set: functional.
Data set [41] concerns Pseudomonas aeruginosa. Nature of the data set: Synergistic antibacterial activity against wild type Pseudomonas aeruginosa PAO1 assessed as potentiation of clindamycin-induced antibacterial effect incubated for 18 hrs by checkerboard assay relative to clindamycin alone. It is filed as functional.
Data set [42] deals with Pseudomonas aeruginosa. Nature of the data set: Synergistic antibacterial activity against wild type Pseudomonas aeruginosa PAO1 assessed as potentiation of novobiocin-induced antibacterial effect incubated for 18 hrs by checkerboard assay relative to novobiocin alone. It is filed as functional.
Data set [43] concerns Pseudomonas aeruginosa. Nature of the data set: Synergistic antibacterial activity against wild type Pseudomonas aeruginosa PAO1 assessed as potentiation of piperacillin-induced antibacterial effect incubated for 18 hrs by checkerboard assay relative to piperacillin alone. Type of data set: functional.

Active and inactive are the calls of the source. The calls are words filed in the database; no cut-off is given here.

A word on the MIC: it is the lowest concentration that inhibits growth of the organism. COLISTIN: the fold change (FC) in the data set on Acinetobacter baumannii [1] was found to be 1024. Further, the MIC in the data set with Acinetobacter baumannii [2] came out at 8 µg/mL; in the data set on Acinetobacter baumannii [3], 1020 µg/mL; in the data set on Acinetobacter baumannii [4] it was 0.031 µg/mL; in the data set on Acinetobacter baumannii [5], 0.063 µg/mL.

In the case of `NC[C@H]1O[C@H](O[C@H]2[C@H](OCCCCCCCCn3cc(CCCCO[C@@H]4[C@@H](O[C@H]5O[C@H](CO)[C@@H](O)[C@H](N)[C@H]5O)[C@H](N)C[C@H](N)[C@H]4O[C@H]4O[C@H](CN)[C@@H](O)C[C@H]4N)nn3)[C@@H](O[C@H]3O[C@H](CO)[C@@H](O)[C@H](N)[C@H]3O)[C@H](N)C[C@@H]2N)[C@H](N)C[C@@H]1O.O=C(O)C(F)(F)F.O=C(O)C(F)(F)F.O=C(O)C(F)(F)F.O=C(O)C(F)(F)F.O=C(O)C(F)(F)F.O=C(O)C(F)(F)F.O=C(O)C(F)(F)F.O=C(O)C(F)(F)F.O=C(O)C(F)(F)F.O=C(O)C(F)(F)F`, the Activity entry with Pseudomonas aeruginosa [6] was “Dose-dependent effect”; in the data set on Pseudomonas aeruginosa [7], “Dose-dependent effect”; in the data set with Pseudomonas aeruginosa [8], “Dose-dependent effect”; in the data set with HEK293, “Non-Toxic”; in the data set on HepG2, “Non-Toxic”; with Erythrocyte it was “Non-Toxic”. In addition, the Activity entry in [9] is “Non-Toxic”; in the data set with Pseudomonas aeruginosa [10], “Dose-dependent effect”; with Pseudomonas aeruginosa [11], “Dose-dependent effect”; with Pseudomonas aeruginosa [12], “Dose-dependent effect”; in the data set on Pseudomonas aeruginosa [13], “Dose-dependent effect”; in the data set on Pseudomonas aeruginosa [14], “Dose-dependent effect”. For the same compound, the Activity entry with Pseudomonas aeruginosa [15], in the data set on Pseudomonas aeruginosa [16], in the data set on Pseudomonas aeruginosa [17], with Pseudomonas aeruginosa [18], in the data set on Pseudomonas aeruginosa [19] and in the data set on Pseudomonas aeruginosa [20] was “Dose-dependent effect” in each case. Also, the Activity entry in the data set with Pseudomonas aeruginosa [21] and with Pseudomonas aeruginosa [22] was “Dose-dependent effect” in each case. The result in the data set with Pseudomonas aeruginosa [23], in the data set on Pseudomonas aeruginosa [24] and with Pseudomonas aeruginosa [25] was inactive. The “fractional inhibitory concentration index (FICI)” value in the data set on Pseudomonas aeruginosa [26] and with Pseudomonas aeruginosa [27] was above 4 each time. The “fold change (FC)” value in the data set with Pseudomonas aeruginosa [28], in the data set with Pseudomonas aeruginosa [29], in the data set on Pseudomonas aeruginosa [30], with Pseudomonas aeruginosa [31], with Pseudomonas aeruginosa [32] and with Pseudomonas aeruginosa [33] was 4 - 128 each time. Further, the “fold change (FC)” value with Pseudomonas aeruginosa [34], in the data set on Pseudomonas aeruginosa [35], in the data set with Pseudomonas aeruginosa [36], in the data set on Pseudomonas aeruginosa [37], in the data set on Pseudomonas aeruginosa [38] and in the data set with Pseudomonas aeruginosa [39] was 4 - 128 in each case. Besides, the “fold change (FC)” value in the data set on Pseudomonas aeruginosa [40], in the data set with Pseudomonas aeruginosa [41], in the data set on Pseudomonas aeruginosa [42] and in the data set with Pseudomonas aeruginosa [43] was 4 - 128 in each case.
